Values joined by “and” are separate entries in the source; they are usually repeats but may differ in a detail not shown here. Identical values can stand only once. Non-standard residues stand in square brackets, D forms with d. Residues, ends and D or L forms follow the SMILES beside them. ξ: configuration not given here. *: point of attachment. X1 = NCCCC[C@H](N)C(=O)NCCCC[C@H](NC(=O)[C@@H](N)CCCCN)C(=O)*; ξGly(dodecyl) = CCCCCCCCCCCCC(N)C(=O)O
Assays:
[1] = tested on: Human Embryonic Kidney (HEK) 293 cells; assay: Transient transfection of HEK 293 cells with GABAA receptor α1 subunit cDNA; format: cell-based; settings: […] compound 1a
Experimental: Human Embryonic Kidney (HEK) 293 cells were sub-cultured onto poly-L-lysine coated 35 mm petri dishes such that 24 h later the cells were still sub-confluent. Culture media was replaced on the morning of the transfection procedure. Cells were returned to the CO2—incubator ([…]/95% air) for 3 h.
Compound 1a was incubated with a GABAA receptor αl subunit cDNA-pCDM8 (Mammalian cell expression vector Thompson C. L. et al Neuroscience Let. 144 53–56 (1992)) construct (Fc2 μg/ml) in DMEM at weight ratios of 1:1, 10:1 and 100:1 (1a:α1 cDNA) for 30 minutes prior to transfection.
Cells were washed 3× with serum-free DMEM prior to application of compound 1a/GABAA receptor α subunit cDNA-vector (1ml/dish). Dishes were returned to the incubator (37° C.) for 5 h. Media was then supplemented with DMEM/10% FCS (1 ml/dish), returned to the incubator for 24 h. […]
24 h later the cells were washed 3× with phosphate-buffered saline and then fixed with methanol (−20° C., 25 min, 2 dishes from each regime) or 4% parafarmaldehyde (room temp., 15 min, 2 dishes from each regime). The cells were then processed for GABAA receptor α1 subunit-like immunoreactivity according to Thompson et al. Immunoreactivity was detected by diaminobenzidine staining and visualised under the light microscope.

[2] = In vivo distribution of 3H-dendrimer (liquid scintillation counting); parameters: species or system C57BL/6 mice
Experimental: Tritiated dendrimer synthesised as described in Example 1 above except 3H labelled BOC-lysine was prepared quantitatively from 3H-lysine purchased commercially based on the method of Keller et al Organ. Synth. 63, 160–170 (1985) (1a: Specific Activity 31Bq/ug @ 5 μg/μl in dH20) were made up to 1.2 μg/μl with 0.9% w/v sodium chloride BP. For each animal, complexes were formed at room temperature by adding 5 μg pCEP4hFIXint (as used in Example 11) in 100 μl 0.9% sodium chloride BP) dropwise to 100 μl dendrimer solution (dendrimer:DNA charge ratio about 4:1) with moderate vortexing. The complexes were then sonicated on ice with a hand-held probe at low power setting several times with three second pulses.
Male C57BL/6mice (8–10 weeks) were divided into two groups. The first group (n=8) were given approx. 150–200 μl of the complexes (exact dose determined by difference in weight of syringe pre/post injection) via tail vein injection. The second (n=4) were administered 150 μl of the complexes in a dosed food particle (isolation/observation confirmed ingestion of the food particle). At time-points 2 hours, 24 hours, 4 days, 7 days (group 1) and 24 hours, and 7 days (group 2) the mice were sacrificed and organs/fluids harvested. Blood and urine were collected when possible post mortem, the former in citrate tubes. Organs were weighed and immediately immersed in liquid nitrogen cooled isopentane to be kept at −80° C.
Organ samples for liquid scintillation counting (for detecting dendrimer) were processed as per “Packard Counting Solutions” protocol for samples <30 mg using Solvable (Packard) for all tissues except blood, urine and digestive tract tissues that were dissolved using Soluene-350 (Packard). The LSC cocktail used was Ultima Gold. Counting time was 10 minutes. Detection of episomal DNA was performed by PCR using primers that amplified a 460 bp section of the plasmid of the 3′ end of hFIX cDNA and the SV40 pA region

Rat red blood cells = assay: RBC lysis, compound alone or complexed with pSVβgal; settings: pSVβgal 0.0125 μg/μl, 1 hour at 37° C.
Experimental: Rat red blood cells were obtained by centrifugation of complete blood. A 2% suspension of cells was made in phosphate buffered saline. […] The lysate supernatant was recovered by centrifugation and the absorbance measured at 540 nm. (Concentration of pSVβgal was 0.0125 μg/μl).

## CCCCCCCCCCCCC(NC(=O)C(CCCCCCCCCCCC)NC(=O)C(CCCCCCCCCCCC)NC(=O)[C@H](CCCCNC(=O)[C@H](CCCCNC(=O)[C@@H](N)CCCCN)NC(=O)[C@@H](N)CCCCN)NC(=O)[C@H](CCCCNC(=O)[C@@H](N)CCCCN)NC(=O)[C@@H](N)CCCCN)C(N)=O (some centres unmarked) [Compound 1a] (H-KK(Lys)K(X1)[ξGly(dodecyl)][ξGly(dodecyl)][ξGly(dodecyl)]-NH2)
[1]
  cell viability: deleterious to cell viability
[2]; Oral, 24 hours
  % age Total Dose, Heart: 0.53%
  % age Total Dose, Kidney: 0.52% and 0.29%
  % age Total Dose, Liver: 3.70% and 1.84%
  % age Total Dose, Lungs: 0.78%
  % age Total Dose, Spleen: 0.16% and 0.13%
  % age Total Dose, Urine: 0.48% and 0.75%
[2]; i.v., 2 hours
  % age Total Dose, Heart: 0.22% and 0.06%
  % age Total Dose, Kidney: 0.34% and 0.48%
  % age Total Dose, Liver: 10.35% and 2.07%
  % age Total Dose, Lungs: 0.47% and 0.13%
  % age Total Dose, Spleen: 1.00% and 0.30%
  Activity, Urine: (21 Bq/0.1 ml)
[2]; i.v., 24 hours
  % age Total Dose, Heart: 0.80% and 4.89%
  % age Total Dose, Kidney: 0.57% and 1.63%
  % age Total Dose, Liver: 8.05% and 0.71%
  % age Total Dose, Spleen: 0.61% and 0.07%
  % age Total Dose, Urine: 0.52%
[2]; i.v., 4 days
  % age Total Dose, Heart: 1.48%
  % age Total Dose, Lungs: 0.95%
  % age Total Dose, Muscle: 0.03%
  % age Total Dose, Spleen: 0.18%
  % age Total Dose, Urine: 1.3%
[2]; i.v., 7 days
  % age Total Dose, Heart: 1.53%
  % age Total Dose, Kidney: 0.89% and 5.68%
  % age Total Dose, Liver: 2.91% and 6.53%
  % age Total Dose, Lungs: 0.16%
  % age Total Dose, Spleen: 0.53% and 0.51%

## CCCCCCCCCCCCC(NC(=O)C(CCCCCCCCCCCC)NC(=O)C(CCCCCCCCCCCC)NC(=O)[C@H](CCCCNC(=O)[C@H](CCCCNC(=O)[C@H](CCCCNC(=O)[C@@H](N)CCCCN)NC(=O)[C@@H](N)CCCCN)NC(=O)[C@H](CCCCNC(=O)[C@@H](N)CCCCN)NC(=O)[C@@H](N)CCCCN)NC(=O)[C@H](CCCCNC(=O)[C@H](CCCCNC(=O)[C@@H](N)CCCCN)NC(=O)[C@@H](N)CCCCN)NC(=O)[C@H](CCCCNC(=O)[C@@H](N)CCCCN)NC(=O)[C@@H](N)CCCCN)C(N)=O (some centres unmarked) [Compound 1b]
Rat red blood cells
  effect of complexing to DNA on erythrocyte lysis: reduces levels of erythrocyte lysis

— patent publication US7081495B1, “Cationic compounds and their use as macro molecular carriers” (School of Pharmacy, University of London, priority 1998, dated 2006)
